{
  "source": "patent US20220184040A1",
  "about": "“METHOD OF TREATING MALIGNANT RHABDOID TUMOR OF THE OVARY AND SMALL CELL CANCER OF THE OVARY OF THE HYPERCALCEMIC TYPE” (TRANSLATIONAL DRUG DEVELOPMENT, LLC, priority 2019, published 2022)",
  "key": {"HDAC6": {"target": "HDAC6 (Homo sapiens, UniProt Q9UBN7)", "sequence (Q9UBN7 whole entry, canonical isoform)": "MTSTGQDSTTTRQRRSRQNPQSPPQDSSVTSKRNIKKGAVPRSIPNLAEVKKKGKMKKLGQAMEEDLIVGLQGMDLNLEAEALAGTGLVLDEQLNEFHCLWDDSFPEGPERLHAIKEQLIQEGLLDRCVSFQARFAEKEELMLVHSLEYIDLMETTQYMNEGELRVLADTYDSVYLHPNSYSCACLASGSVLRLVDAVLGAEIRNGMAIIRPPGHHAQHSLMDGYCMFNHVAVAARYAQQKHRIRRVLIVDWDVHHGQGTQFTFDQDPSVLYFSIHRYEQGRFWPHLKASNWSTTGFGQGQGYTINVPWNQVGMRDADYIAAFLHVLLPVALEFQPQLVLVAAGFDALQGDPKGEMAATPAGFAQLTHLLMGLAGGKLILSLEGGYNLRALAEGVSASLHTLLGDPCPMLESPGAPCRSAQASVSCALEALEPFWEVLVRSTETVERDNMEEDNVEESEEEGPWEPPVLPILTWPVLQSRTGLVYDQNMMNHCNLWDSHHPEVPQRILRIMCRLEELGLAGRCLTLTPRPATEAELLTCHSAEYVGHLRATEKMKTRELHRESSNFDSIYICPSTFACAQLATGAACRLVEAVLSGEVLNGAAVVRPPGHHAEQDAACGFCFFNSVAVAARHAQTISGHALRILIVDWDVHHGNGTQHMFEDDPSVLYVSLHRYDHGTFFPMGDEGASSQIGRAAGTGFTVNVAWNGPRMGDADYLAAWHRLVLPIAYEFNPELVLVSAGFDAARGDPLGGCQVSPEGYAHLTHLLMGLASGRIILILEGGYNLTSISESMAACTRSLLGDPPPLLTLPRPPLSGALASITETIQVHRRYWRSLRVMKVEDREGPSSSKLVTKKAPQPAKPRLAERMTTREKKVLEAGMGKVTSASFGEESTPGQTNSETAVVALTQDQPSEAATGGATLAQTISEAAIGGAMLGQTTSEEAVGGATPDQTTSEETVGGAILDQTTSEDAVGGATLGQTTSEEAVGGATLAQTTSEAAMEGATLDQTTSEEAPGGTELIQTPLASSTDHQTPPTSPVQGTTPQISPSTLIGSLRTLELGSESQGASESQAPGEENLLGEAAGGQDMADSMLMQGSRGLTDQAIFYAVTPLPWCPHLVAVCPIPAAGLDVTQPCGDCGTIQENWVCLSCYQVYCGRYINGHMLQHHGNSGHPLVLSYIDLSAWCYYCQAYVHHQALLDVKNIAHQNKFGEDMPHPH", "experiment": "HDAC isoform inhibition, HDAC6", "format": "biochemical", "from_the_text": "(§1) In contrast to pan-HDAC inhibition, isoform restricted HDAC inhibition revokes immune privilege. HDAC3 has emerged as a key target to enhance immune function: • Decrease in Treg suppressive function • Increase in Natural Killer Cell ligand expression on tumors • Enhance macrophage host defense activity • Upregulation of PD-L1 expression and increased sensitivity to anti-PD1 treatments HDAC6 inhibition has potent immunomodulatory benefits including: • Decrease in expression of the anti-inflammatory cytokine IL-10 • Enhanced expression of MHC class I/II genes and increased expression of known tumor antigens • Decreased immunosuppression and enhanced immune function of melanoma patient T-cells"}, "H522": {"tested_on": "H522", "experiment": "CellTiter-Glo cell viability assay, H522", "format": "cell-based", "settings": "Homo sapiens, NCI-H522; read-out: anti-proliferative IC50", "method": "(§2) Cell viability was measured by the CellTiter -GlO® cell viability assay from Promega (Madison, Wis.). The CellTiter-GlO® Luminescent Cell Viability Assay is a homogeneous method to determine the number of viable cells in culture based on quantitation of the ATP present, which signals the presence of metabolically active cells. Following treatment, CellTiter-GlO® is added to treatment wells and incubated at 37° C. luminescence values were measured at using a Molecular Devices Spectramax microplate reader\n(§3) Cells were grown to 70% confluency, trypsinized, counted, and seeded in 96 well flat-bottom plates at a final concentration of 2.5×10^3-5×10^3 cells/well (Day 0). Cells were allowed to incubate in growth media for 24 hours. Treatment with the test agents or standard agents began on Day 1 and continued for 72 hours. At the 72-hour timepoint, treatment containing media was removed. Viable cell numbers are quantified by the CellTiter-GlO® cell viability assay as described above. […]\n(§4) For single agent and combination studies, data from each experiment was collected and expressed as % Cell Growth using the following calculation: […]\n(§5) Where ftest is the fluorescence of the tested sample, and fvehicle is the fluorescence of the vehicle in which the drug is dissolved. […]"}, "A427": {"tested_on": "A427", "experiment": "CellTiter-Glo cell viability assay, A427", "format": "cell-based", "settings": "Homo sapiens, A-427, read-out: anti-proliferative IC50", "method": "as §2, §3, §4, §5"}, "[1]": {"tested_on": "SMARCA2 gene expression in BIN-67 cells", "experiment": "SMARCA2 gene expression in treated BIN-67 cells", "format": "cell-based, human", "settings": "in vitro treatment"}, "[2]": {"tested_on": "Dual SMARCA2 and SMARCA4 deficient cell lines (A204, G401, G402, H522, and A427)", "experiment": "Proliferation assays, dual SMARCA2 and SMARCA4 deficient cell lines", "format": "cell-based", "settings": "range over A204, G401, G402, H522, A427", "method": "as §2, §3, §4, §5"}, "BIN67 cells": {"tested_on": "BIN67 cells", "experiment": "RNA-Seq analyses of treated BIN67 cells", "format": "cell-based, human"}, "[3]": {"tested_on": "BIN67 human tumor xenografts", "experiment": "SCCOHT xenograft model (BIN-67)", "format": "in vivo, mice", "settings": "for mean tumor regression: BIN67 xenografts in mice, two weeks post-treatment initiation", "method": "In vivo treatment of tumors in an SCCOHT xenograft model (BIN-67) was evaluated. In vivo xenograft tumors from SCCOHT cell line BIN-67 were dosed with (S)-N-hydroxy-2-(2-(4-methoxyphenyl)butanamido)thiazole-5-carboxamide (i.e., GB-3103) for 60 days."}, "HDAC8": {"target": "HDAC8 (Homo sapiens, UniProt Q9BY41)", "sequence (Q9BY41 whole entry, canonical isoform)": "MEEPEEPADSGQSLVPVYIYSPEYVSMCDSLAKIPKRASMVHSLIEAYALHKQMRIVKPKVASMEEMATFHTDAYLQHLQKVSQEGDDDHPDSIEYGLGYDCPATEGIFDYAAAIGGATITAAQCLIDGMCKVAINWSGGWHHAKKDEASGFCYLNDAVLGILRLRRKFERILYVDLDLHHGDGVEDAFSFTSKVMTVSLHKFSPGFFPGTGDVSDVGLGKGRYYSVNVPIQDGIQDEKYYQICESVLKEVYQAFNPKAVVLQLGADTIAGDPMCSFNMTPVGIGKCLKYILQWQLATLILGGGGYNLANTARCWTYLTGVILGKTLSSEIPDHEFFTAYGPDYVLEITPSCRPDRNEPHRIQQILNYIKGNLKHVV", "experiment": "HDAC isoform inhibition, HDAC8", "format": "biochemical", "from_the_text": "as §1"}, "HDAC2": {"target": "HDAC2 (Homo sapiens, UniProt Q92769)", "experiment": "HDAC isoform inhibition, HDAC2", "format": "biochemical", "from_the_text": "as §1"}, "CT-26 tumors": {"tested_on": "CT-26 tumors", "experiment": "Syngeneic CT-26 mouse colon cancer model", "format": "in vivo", "from_the_text": "Given the importance of MHC Class II expression and response to checkpoint inhibitor therapies, we tested the activity of GB-3103 alone and in combination with anti-mPD-1 and anti-mPD-L1 antibodies in a syngeneic CT-26 mouse colon cancer model. […] However, tumor growth resumed on Day 15 and continued to increase until Day 26 (see FIG. 7)."}, "[4]": {"tested_on": "SMARCA2 protein expression in BIN-67 cells", "experiment": "SMARCA2 protein expression in treated BIN-67 cells", "format": "cell-based, human", "settings": "in vitro treatment"}, "HDAC10": {"target": "HDAC10 (Homo sapiens, UniProt Q969S8)", "experiment": "HDAC isoform inhibition, HDAC10", "format": "biochemical", "from_the_text": "as §1"}, "A204": {"tested_on": "A204", "experiment": "CellTiter-Glo cell viability assay, A204", "format": "cell-based", "settings": "Homo sapiens, read-out: anti-proliferative IC50", "method": "as §2, §3, §4, §5"}, "[5]": {"tested_on": "G401 human malignant rhabdoid tumor xenografts", "experiment": "Malignant rhabdoid tumor xenograft model (G401)", "format": "in vivo, mice", "method": "In vivo treatment of tumors in a malignant rhabdoid tumor xenograft model (G401) was evaluated. In vivo xenograft tumors from MRT line G401 were dosed with (S)-N-hydroxy-2-(2-(4-methoxyphenyl)butanamido)thiazole-5-carboxamide (i.e., GB-3103) for 30 days."}, "COV434": {"tested_on": "COV434", "experiment": "CellTiter-Glo cell viability assay, COV434", "format": "cell-based", "settings": "Homo sapiens", "method": "as §2, §3, §4, §5"}, "HDAC5": {"target": "HDAC5 (Homo sapiens, UniProt Q9UQL6)", "sequence (Q9UQL6 whole entry, canonical isoform)": "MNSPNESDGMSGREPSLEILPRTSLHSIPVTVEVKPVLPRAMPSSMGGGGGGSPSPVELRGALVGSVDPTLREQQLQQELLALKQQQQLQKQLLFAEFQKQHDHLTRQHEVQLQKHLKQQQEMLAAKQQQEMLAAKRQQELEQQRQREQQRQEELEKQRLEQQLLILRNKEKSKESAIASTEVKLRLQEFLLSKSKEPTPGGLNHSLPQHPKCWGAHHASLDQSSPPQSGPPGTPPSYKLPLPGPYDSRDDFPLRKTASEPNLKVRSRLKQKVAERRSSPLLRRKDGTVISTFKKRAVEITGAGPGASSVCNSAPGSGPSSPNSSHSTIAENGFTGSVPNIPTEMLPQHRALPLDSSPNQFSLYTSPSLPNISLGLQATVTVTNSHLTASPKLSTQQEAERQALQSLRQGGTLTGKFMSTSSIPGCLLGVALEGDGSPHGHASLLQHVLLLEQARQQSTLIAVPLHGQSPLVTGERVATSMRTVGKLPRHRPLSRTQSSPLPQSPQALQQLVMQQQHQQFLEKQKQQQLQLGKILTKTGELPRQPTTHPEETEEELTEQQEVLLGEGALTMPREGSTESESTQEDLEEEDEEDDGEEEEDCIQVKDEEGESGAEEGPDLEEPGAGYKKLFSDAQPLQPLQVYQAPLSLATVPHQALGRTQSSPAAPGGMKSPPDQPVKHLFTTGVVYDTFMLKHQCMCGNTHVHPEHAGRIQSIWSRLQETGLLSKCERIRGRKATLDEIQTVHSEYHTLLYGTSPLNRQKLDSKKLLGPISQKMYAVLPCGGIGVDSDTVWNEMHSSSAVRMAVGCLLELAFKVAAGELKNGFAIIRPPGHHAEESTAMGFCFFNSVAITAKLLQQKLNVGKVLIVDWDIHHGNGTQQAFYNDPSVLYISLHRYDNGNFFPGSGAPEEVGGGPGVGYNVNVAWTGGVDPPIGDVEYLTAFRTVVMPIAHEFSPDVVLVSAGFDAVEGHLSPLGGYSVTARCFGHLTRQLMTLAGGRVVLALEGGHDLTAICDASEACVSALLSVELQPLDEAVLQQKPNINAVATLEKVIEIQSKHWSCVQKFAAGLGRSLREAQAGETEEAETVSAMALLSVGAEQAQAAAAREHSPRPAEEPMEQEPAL", "experiment": "HDAC isoform inhibition, HDAC5", "format": "biochemical", "from_the_text": "as §1"}, "HDAC1": {"target": "HDAC1 (Homo sapiens, UniProt Q13547)", "sequence (Q13547 whole entry, canonical isoform)": "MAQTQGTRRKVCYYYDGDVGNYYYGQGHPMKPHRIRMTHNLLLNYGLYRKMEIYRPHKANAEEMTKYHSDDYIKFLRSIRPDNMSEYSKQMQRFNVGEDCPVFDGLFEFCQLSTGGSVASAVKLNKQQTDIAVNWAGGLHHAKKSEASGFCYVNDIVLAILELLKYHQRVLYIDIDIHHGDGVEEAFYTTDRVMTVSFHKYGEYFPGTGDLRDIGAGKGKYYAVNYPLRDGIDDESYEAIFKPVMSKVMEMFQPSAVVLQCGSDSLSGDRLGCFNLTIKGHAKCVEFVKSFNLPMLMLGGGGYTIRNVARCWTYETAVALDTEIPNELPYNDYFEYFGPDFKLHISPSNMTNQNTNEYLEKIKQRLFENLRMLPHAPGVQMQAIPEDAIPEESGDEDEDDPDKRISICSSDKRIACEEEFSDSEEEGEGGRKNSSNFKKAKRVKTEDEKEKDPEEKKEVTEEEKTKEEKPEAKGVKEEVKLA", "experiment": "HDAC isoform inhibition, HDAC1", "format": "biochemical", "from_the_text": "as §1"}, "HDAC7": {"target": "HDAC7 (Homo sapiens, UniProt Q8WUI4)", "sequence (Q8WUI4 whole entry, canonical isoform)": "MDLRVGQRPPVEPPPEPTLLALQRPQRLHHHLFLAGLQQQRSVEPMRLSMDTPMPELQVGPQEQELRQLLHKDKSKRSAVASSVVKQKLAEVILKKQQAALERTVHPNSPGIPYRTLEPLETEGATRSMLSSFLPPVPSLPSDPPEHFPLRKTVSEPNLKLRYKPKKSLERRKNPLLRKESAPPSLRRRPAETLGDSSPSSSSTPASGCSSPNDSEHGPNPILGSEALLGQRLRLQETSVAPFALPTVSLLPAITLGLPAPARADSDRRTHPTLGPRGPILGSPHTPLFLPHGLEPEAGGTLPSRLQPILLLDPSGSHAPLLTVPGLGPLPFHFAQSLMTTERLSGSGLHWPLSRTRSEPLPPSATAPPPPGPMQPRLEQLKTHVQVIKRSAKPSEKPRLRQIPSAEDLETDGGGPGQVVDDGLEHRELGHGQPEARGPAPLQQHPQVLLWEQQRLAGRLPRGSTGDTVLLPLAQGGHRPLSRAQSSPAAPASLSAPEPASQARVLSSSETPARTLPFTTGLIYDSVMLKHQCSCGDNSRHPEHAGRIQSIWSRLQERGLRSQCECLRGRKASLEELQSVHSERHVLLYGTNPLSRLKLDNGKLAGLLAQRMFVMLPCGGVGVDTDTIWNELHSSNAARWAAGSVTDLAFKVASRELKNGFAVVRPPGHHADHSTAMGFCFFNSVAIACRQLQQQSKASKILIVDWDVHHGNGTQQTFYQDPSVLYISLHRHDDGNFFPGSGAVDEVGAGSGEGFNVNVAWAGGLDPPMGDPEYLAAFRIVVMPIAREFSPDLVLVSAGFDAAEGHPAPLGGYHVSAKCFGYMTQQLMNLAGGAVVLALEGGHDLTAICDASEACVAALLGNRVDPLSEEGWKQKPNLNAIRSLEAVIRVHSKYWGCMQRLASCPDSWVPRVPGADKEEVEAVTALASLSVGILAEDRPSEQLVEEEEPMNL", "experiment": "HDAC isoform inhibition, HDAC7", "format": "biochemical", "from_the_text": "as §1"}, "G402": {"tested_on": "G402", "experiment": "CellTiter-Glo cell viability assay, G402", "format": "cell-based", "settings": "Homo sapiens, G-402, read-out: anti-proliferative IC50", "method": "as §2, §3, §4, §5"}, "BIN67": {"tested_on": "BIN67", "experiment": "CellTiter-Glo cell viability assay, BIN67", "format": "cell-based", "settings": "Homo sapiens; BIN67, 72 hours treatment", "method": "as §2, §3, §4, §5"}, "[6]": {"tested_on": "SCCOHT cell lines (BIN67, COV434, and SCCOHT-1)", "experiment": "Cell proliferation assays, three SCCOHT cell lines", "format": "cell-based", "settings": "Homo sapiens; range over BIN67, COV434, SCCOHT-1", "method": "as §2, §3, §4, §5"}, "HDAC9": {"target": "HDAC9 (Homo sapiens, UniProt Q9UKV0)", "experiment": "HDAC isoform inhibition, HDAC9", "format": "biochemical", "from_the_text": "as §1"}, "HDAC3": {"target": "HDAC3 (Homo sapiens, UniProt O15379)", "sequence (O15379 whole entry, canonical isoform)": "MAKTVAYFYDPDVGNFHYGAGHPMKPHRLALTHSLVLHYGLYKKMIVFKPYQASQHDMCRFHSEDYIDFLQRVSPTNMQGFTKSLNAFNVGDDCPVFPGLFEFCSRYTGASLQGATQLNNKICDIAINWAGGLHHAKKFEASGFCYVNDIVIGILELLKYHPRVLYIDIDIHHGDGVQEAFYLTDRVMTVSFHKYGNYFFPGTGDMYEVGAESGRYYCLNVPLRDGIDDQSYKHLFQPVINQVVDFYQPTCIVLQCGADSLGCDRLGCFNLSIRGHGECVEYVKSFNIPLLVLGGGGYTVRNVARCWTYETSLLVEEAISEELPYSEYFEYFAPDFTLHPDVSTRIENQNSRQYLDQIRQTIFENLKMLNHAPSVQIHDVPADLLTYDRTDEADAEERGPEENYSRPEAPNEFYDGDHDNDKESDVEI", "sequence (Q9Y618 395-489 partner limits assumed)": "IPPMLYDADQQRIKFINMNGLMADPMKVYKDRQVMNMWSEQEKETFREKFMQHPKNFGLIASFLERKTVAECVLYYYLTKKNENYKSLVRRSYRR", "experiment": "HDAC isoform inhibition, HDAC3", "format": "biochemical", "from_the_text": "as §1"}, "HDAC4": {"target": "HDAC4 (Homo sapiens, UniProt P56524)", "experiment": "HDAC isoform inhibition, HDAC4", "format": "biochemical", "from_the_text": "as §1"}, "SCCOHT-1": {"tested_on": "SCCOHT-1", "experiment": "CellTiter-Glo cell viability assay, SCCOHT-1", "format": "cell-based", "settings": "Homo sapiens; SCCOHT-1, 72 hours treatment", "method": "as §2, §3, §4, §5"}, "HDAC11": {"target": "HDAC11 (Homo sapiens, UniProt Q96DB2)", "sequence (Q96DB2 whole entry, canonical isoform)": "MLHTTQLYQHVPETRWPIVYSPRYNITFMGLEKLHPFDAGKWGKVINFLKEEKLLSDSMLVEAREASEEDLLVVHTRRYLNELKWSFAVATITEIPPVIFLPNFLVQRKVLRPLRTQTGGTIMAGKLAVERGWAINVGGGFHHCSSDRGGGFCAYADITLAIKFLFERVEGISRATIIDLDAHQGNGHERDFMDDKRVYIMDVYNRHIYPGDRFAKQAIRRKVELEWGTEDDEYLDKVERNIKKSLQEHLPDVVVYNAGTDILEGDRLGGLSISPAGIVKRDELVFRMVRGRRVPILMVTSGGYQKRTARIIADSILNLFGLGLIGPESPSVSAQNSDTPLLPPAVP", "experiment": "HDAC isoform inhibition, HDAC11", "format": "biochemical", "from_the_text": "as §1"}, "G401": {"tested_on": "G401", "experiment": "CellTiter-Glo cell viability assay, G401", "format": "cell-based", "settings": "Homo sapiens, G-401, read-out: anti-proliferative IC50", "method": "as §2, §3, §4, §5"}},
  "note": "“Also recorded” adds a separate entry of the source. Where two headings read alike, the source gives them in different places.",
  "data": [
    {"smiles": "CC[C@H](C(=O)Nc1ncc(C(=O)NO)s1)c1ccc(OC)cc1", "note": "[GB-3103, (S)-N-hydroxy-2-(2-(4-methoxyphenyl)butanamido)thiazol-5-carboxamide]", "values": [
      {"measurement": "IC50", "setting": "HDAC6", "result": 0.706, "unit": "nM"},
      {"measurement": "mode of inhibition of HDAC6", "setting": "HDAC6", "result": "irreversible"},
      {"measurement": "IC50", "setting": "H522", "result": 102, "unit": "nM"},
      {"measurement": "IC50", "setting": "A427", "result": 174, "unit": "nM"},
      {"measurement": "induction of SMARCA2 gene (mRNA) expression", "setting": "[1]", "result": "concentration and time dependent induction of SMARCA2 gene re-expression; also recorded: potent concentration- and time-dependent induction of SMARCA2 expression at both mRNA and protein levels"},
      {"measurement": "IC50", "setting": "[2]", "result": "50 to 200", "unit": "nM"},
      {"measurement": "RNA-Seq findings", "setting": "BIN67 cells", "result": "affects DNA replication and mRNA stability as well as inducing the expression of MHC Class II proteins"},
      {"measurement": "mean tumor regression", "setting": "[3]; 5 mg/kg QD", "result": 26, "unit": "%"},
      {"measurement": "mean tumor regression", "setting": "[3]; 10 mg/kg QD", "result": 33, "unit": "%"},
      {"measurement": "tumor volume compared to vehicle control tumors", "setting": "[3]; BIN-67 xenograft, dosed for 60 days", "result": "statistically significant decreases in volume"},
      {"measurement": "IC50", "setting": "HDAC8", "result": 133, "unit": "nM"},
      {"measurement": "IC50", "setting": "HDAC2", "result": 5.3, "unit": "nM"},
      {"measurement": "effect on established tumors", "setting": "CT-26 tumors; CT-26 syngeneic model, combined with anti-mPD-1 antibody", "result": "regression of established CT-26 tumors"},
      {"measurement": "effect on established tumors", "setting": "CT-26 tumors; CT-26 syngeneic model, combined with anti-mPD-L1 antibody", "result": "regression of established CT-26 tumors"},
      {"measurement": "TGI", "setting": "CT-26 tumors; CT-26 syngeneic model, single agent", "result": 93, "unit": "%"},
      {"measurement": "day on which tumor growth resumed", "setting": "CT-26 tumors; CT-26 syngeneic model, single agent, growth continued until Day 26", "result": 15, "unit": "days"},
      {"measurement": "tumor memory response", "setting": "CT-26 tumors; alone and in combination with anti-PD-1/anti-PD-L1 checkpoint modulators, mice", "result": "creates a tumor memory response preventing re-growth of tumors"},
      {"measurement": "induction of SMARCA2 protein expression", "setting": "[4]", "result": "potent concentration- and time-dependent induction of SMARCA2 expression at both mRNA and protein levels"},
      {"measurement": "IC50", "setting": "HDAC10", "result": 2.03, "unit": "nM"},
      {"measurement": "IC50", "setting": "A204", "result": 95, "unit": "nM"},
      {"measurement": "tumor volume compared to vehicle control tumors", "setting": "[5]; G401 xenograft, dosed for 30 days", "result": "statistically significant decreases in volume"},
      {"measurement": "tumor growth inhibition (TGI) compared to vehicle control", "setting": "[5]; G401 xenografts in mice, 5 mg/kg, QD, P<0.05", "result": 70, "unit": "%"},
      {"measurement": "IC50", "setting": "COV434; COV434, read-out: anti-proliferative IC50", "result": 35, "unit": "nM"},
      {"measurement": "IC50", "setting": "COV434; COV434, 72 hours treatment, read-out: IC50", "result": 35, "unit": "nM"},
      {"measurement": "IC50", "setting": "HDAC5", "result": 73.5, "unit": "nM"},
      {"measurement": "IC50", "setting": "HDAC1", "result": 1, "unit": "nM"},
      {"measurement": "IC50", "setting": "HDAC7", "result": 34.5, "unit": "nM"},
      {"measurement": "IC50", "setting": "G402", "result": 71, "unit": "nM"},
      {"measurement": "IC50", "setting": "BIN67", "result": 51, "unit": "nM"},
      {"measurement": "IC50", "setting": "[6]", "result": "51 to 293", "unit": "nM"},
      {"measurement": "IC50", "setting": "HDAC9", "result": 187, "unit": "nM"},
      {"measurement": "IC50", "setting": "HDAC3", "result": 0.565, "unit": "nM"},
      {"measurement": "IC50", "setting": "HDAC4", "result": 138, "unit": "nM"},
      {"measurement": "IC50", "setting": "SCCOHT-1", "result": 293, "unit": "nM"},
      {"measurement": "IC50", "setting": "HDAC11", "result": 5780, "unit": "nM"},
      {"measurement": "IC50", "setting": "G401", "result": 138, "unit": "nM"}
    ]}
  ]
}
